Some test systems named below: U251 CNS; 786-0 renal; UACC-62 melanoma; HL-60(TB) leukemia; SN12C renal; IGROV1 ovarian; SF-295 CNS; MCF7 breast; HCT-15 colon; NCI-H460 lung.
Common to all, as to assay: NCI anticancer screen, dose series, 48 h

Where “and” joins values, the source holds several entries; their conditions need not be identical. Identical values can stand only once.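 Values below derive from 48-hour exposures of cells grown in 96-well plates, with endpoints linearly interpolated between the two concentrations bracketing the appropriate inhibition level. Abbreviation: GI50, concentration required for 50% inhibition of growth. TGI denotes the concentration required for complete inhibition of growth.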

For `CSc1ccc(/C=C2\CNC/C(=C\c3ccc(SC)cc3)C2=O)cc1`, the GI50 in the test on U251 CNS was 34.8 µM and 21.7 µg/mL; in the test with UACC-62 melanoma it was 93.5 µg/mL; in the test with HL-60(TB) leukemia, 15.2 µg/mL; in the test on SN12C renal, 150 µg/mL; in the test with IGROV1 ovarian, 26.3 µg/mL; with SF-295 CNS, 9.25 µg/mL. The GI50 was > 371 µM and 58.8 µg/mL in the test on MCF7 breast; 112 µg/mL in the test on HCT-15 colon; 114 µg/mL in the test on NCI-H460 lung. The TGI is 83.7 µM and 65.4 µg/mL in the test on U251 CNS; 153 µM in the test with 786-0 renal; > 214 µM and 150 µg/mL in the test on UACC-62 melanoma; 362 µM and 99.8 µg/mL in the test on HL-60(TB) leukemia; > 371 µM and 150 µg/mL in the test on SN12C renal; > 162 µM and 110 µg/mL with IGROV1 ovarian. The TGI with SF-295 CNS was > 150 µM and 33.5 µg/mL; with MCF7 breast it was > 371 µM and 150 µg/mL; in the test with HCT-15 colon it was > 371 µM and 150 µg/mL; in the test on NCI-H460 lung it was > 371 µM and 150 µg/mL.

In the case of `CC1(C)O[C@H]2OC3CCC(=O)CC3(O)[C@H]2O1` (some centres undefined), the TGI in the test with U251 CNS, with 786-0 renal, in the test with UACC-62 melanoma, with HL-60(TB) leukemia, in the test with SN12C renal and in the test with IGROV1 ovarian was above 100 µM throughout. In addition, the TGI in the test with SF-295 CNS, in the test on MCF7 breast, in the test on HCT-15 colon and in the test on NCI-H460 lung was above 100 µM throughout.

For `COc1ccc(Cl)cc1Nc1nc(C(F)(F)F)ccc1C(=O)NN`, the GI50 was 2.43 µM in the test on U251 CNS; 2.42 µM with 786-0 renal; 4.87 µM in the test on UACC-62 melanoma; 2.75 µM in the test on HL-60(TB) leukemia; 11.4 µM with SN12C renal; 7.83 µM with IGROV1 ovarian. For the same compound, the GI50 was 1.97 µM with SF-295 CNS, 18.7 µM in the test with MCF7 breast, 1.2 µM in the test on HCT-15 colon and 23 µM in the test with NCI-H460 lung. The TGI in the test with U251 CNS is above 100 µM; in the test with 786-0 renal, above 25.8 µM; in the test on UACC-62 melanoma it was 53.5 µM; in the test with HL-60(TB) leukemia, 18.6 µM; with SN12C renal it was above 100 µM; in the test on IGROV1 ovarian it was above 85.1 µM. Besides, the TGI is 11.7 µM in the test on SF-295 CNS, above 100 µM with MCF7 breast, above 100 µM in the test with HCT-15 colon and above 100 µM in the test with NCI-H460 lung.

Consider `CC[C@H](C)[C@H](NC(=O)c1cnccn1)C(=O)N(C)[C@H](C[C@@H](OC(C)=O)c1nc(C(=O)N[C@@H](Cc2ccccc2)C[C@H](C)C(=O)OC)cs1)C(C)C`, for which the GI50 in the test on U251 CNS was 1.18 µM; in the test with 786-0 renal, 1.71 µM; with UACC-62 melanoma it was 0.105 µM; in the test on HL-60(TB) leukemia, 0.9 µM; with SN12C renal, 2.22 µM; in the test on IGROV1 ovarian, 1.04 µM. In addition, the GI50 is 1.03 µM in the test with SF-295 CNS, 0.0909 µM in the test with MCF7 breast, 1.06 µM in the test with HCT-15 colon and 1.15 µM with NCI-H460 lung. Further, the TGI with U251 CNS is above 33.3 µM; in the test with 786-0 renal, above 21.9 µM; in the test on UACC-62 melanoma it was above 33.3 µM; in the test with HL-60(TB) leukemia, 2.24 µM; in the test with SN12C renal, above 33.3 µM; in the test on IGROV1 ovarian, above 33.3 µM. Besides, the TGI in the test on SF-295 CNS, in the test with MCF7 breast, with HCT-15 colon and in the test on NCI-H460 lung was above 33.3 µM each time.

With `C/C(=N\O)c1ccc(Nc2cc(-n3nnc4ccccc43)nc3ccccc23)cc1`, the GI50 with U251 CNS was 6.68 µM; in the test with 786-0 renal, 4.89 µM; in the test on UACC-62 melanoma, 6.9 µM; in the test with HL-60(TB) leukemia, 10.6 µM; in the test with SN12C renal it was 4.67 µM; in the test on IGROV1 ovarian, 12.9 µM. For the same compound, the GI50 was 10.3 µM in the test with SF-295 CNS, 5.24 µM with MCF7 breast, 4.17 µM in the test with HCT-15 colon and 4.08 µM in the test with NCI-H460 lung. In addition, the TGI with U251 CNS was 25.3 µM; in the test on 786-0 renal, 13.3 µM; in the test on UACC-62 melanoma, 19 µM; with HL-60(TB) leukemia, 45.7 µM; with SN12C renal, 14.2 µM; in the test on IGROV1 ovarian it was 42.5 µM. For the same compound, the TGI in the test with SF-295 CNS was above 100 µM; in the test on MCF7 breast, 14.4 µM; in the test with HCT-15 colon, 20.9 µM; in the test on NCI-H460 lung, above 25.4 µM.

Consider `CNC(=O)Nc1ccc(-c2nc(N3CCOCC3)nc3c2cnn3C2CCOCC2)cc1`, for which the GI50 was 0.258 µM with U251 CNS; 0.295 µM in the test with 786-0 renal; 0.182 µM in the test on UACC-62 melanoma; 1.01 µM in the test with HL-60(TB) leukemia; 0.213 µM in the test with SN12C renal; 0.0794 µM in the test with IGROV1 ovarian. Also, the GI50 was 0.0716 µM in the test on SF-295 CNS, 0.0784 µM in the test on MCF7 breast, 0.26 µM in the test with HCT-15 colon and 0.131 µM in the test with NCI-H460 lung. The TGI in the test on U251 CNS is above 38.6 µM; in the test with 786-0 renal, 2.86 µM; with UACC-62 melanoma, 1.19 µM; in the test on HL-60(TB) leukemia, above 100 µM; with SN12C renal, above 100 µM; with IGROV1 ovarian, 0.493 µM. For the same compound, the TGI in the test with SF-295 CNS is 0.585 µM; in the test on MCF7 breast it was above 100 µM; in the test on HCT-15 colon, above 100 µM; in the test with NCI-H460 lung, above 100 µM.

Regarding `Cc1cc(N(CCNc2ccnc3cc(Cl)ccc23)Cc2ccc3c(c2)OCO3)nc(N2CCN(C)CC2)n1`, the GI50 with U251 CNS was 2.01 µM; in the test on 786-0 renal, 1.59 µM; in the test on UACC-62 melanoma, 1.9 µM; in the test with HL-60(TB) leukemia, 2.06 µM; with SN12C renal it was 3.77 µM; in the test on IGROV1 ovarian it was 3.09 µM. The GI50 is 1.72 µM with SF-295 CNS, 2.4 µM with MCF7 breast, 1.55 µM with HCT-15 colon and 2.65 µM with NCI-H460 lung. Moreover, the TGI in the test on U251 CNS turned out to be 4.25 µM; in the test on 786-0 renal, 3.29 µM; in the test with UACC-62 melanoma it was 3.51 µM; in the test with HL-60(TB) leukemia it was 4.27 µM; in the test on SN12C renal it was 14.2 µM; with IGROV1 ovarian, 12.7 µM. The TGI with SF-295 CNS was determined as 3.42 µM; with MCF7 breast, 10.9 µM; with HCT-15 colon, 3.82 µM; with NCI-H460 lung, 7.86 µM.
